Counter-ions that a name gives are not always drawn.
Legend:
[1] = Pharmacokinetic evaluation in mice (plasma and brain AUC); type: in vivo; set-up: unit not given here; conditions: CL57 BL/6 mice, single IV injection 10 mg/kg, brain homogenate
Experimental: Several compounds disclosed herein were evaluated in a standard murine pharmacokinetic model. […] Three mice in each group were used for blood and brain collection at each time point. […] The brain of each animal was collected after the final blood collection. The whole tissue was harvested, excised and rinsed by saline, dried by filter paper, and then placed into one tube per tissue per animal. All samples were stored at −20° C. until bioanalysis. Compound concentrations in plasma and brain homogenate were determined using a high performance liquid chromatography/mass spectrometry (HPLC/MS/MS) method (Agilent 1100 series HPLC, AB Inc. API4000 triple-quadrupole with an ESI interface and Analyst 1.4 software). Results in the form of area under the time-versus-concentration curve (AUC) are given below in Table 11.

MLK3 [2] = target: T1, MLK3 (Rattus norvegicus, UniProt Q66HA1); conditions: primary rat neurons; cited from earlier work
T1 construct: autophosphorylation of MLK3 in primary rat neurons; endogenous in cells; host or cells: primary rat neurons

[3] = test system: primary rat hippocampal neurons and dorsal root ganglion neurons; conditions: cited from earlier work
[4] = test system: in vivo model of HIV-1 infection; conditions: reversing microglial activation, restoring normal synaptic architecture; cited from earlier work
MLK3 [5] = target: T2, MLK3 (Homo sapiens, UniProt Q16584); test: Radiometric filter plate MLK3 assay; type: biochemical; conditions: read-out: MK3 IC50; further: 2 µM cold ATP (Km)
T2 construct: purchased Dundee DU8313
Experimental: After a twenty minute incubation, the reactions were washed through filter plates and read on a scintillation counter. Results are shown in Table 10 below, in which +++ indicates ≦0.1 μM, ++ indicates >0.1 μM and ≦1 μM, and + indicates >1 μM.

T2 sequence (Q16584 whole entry): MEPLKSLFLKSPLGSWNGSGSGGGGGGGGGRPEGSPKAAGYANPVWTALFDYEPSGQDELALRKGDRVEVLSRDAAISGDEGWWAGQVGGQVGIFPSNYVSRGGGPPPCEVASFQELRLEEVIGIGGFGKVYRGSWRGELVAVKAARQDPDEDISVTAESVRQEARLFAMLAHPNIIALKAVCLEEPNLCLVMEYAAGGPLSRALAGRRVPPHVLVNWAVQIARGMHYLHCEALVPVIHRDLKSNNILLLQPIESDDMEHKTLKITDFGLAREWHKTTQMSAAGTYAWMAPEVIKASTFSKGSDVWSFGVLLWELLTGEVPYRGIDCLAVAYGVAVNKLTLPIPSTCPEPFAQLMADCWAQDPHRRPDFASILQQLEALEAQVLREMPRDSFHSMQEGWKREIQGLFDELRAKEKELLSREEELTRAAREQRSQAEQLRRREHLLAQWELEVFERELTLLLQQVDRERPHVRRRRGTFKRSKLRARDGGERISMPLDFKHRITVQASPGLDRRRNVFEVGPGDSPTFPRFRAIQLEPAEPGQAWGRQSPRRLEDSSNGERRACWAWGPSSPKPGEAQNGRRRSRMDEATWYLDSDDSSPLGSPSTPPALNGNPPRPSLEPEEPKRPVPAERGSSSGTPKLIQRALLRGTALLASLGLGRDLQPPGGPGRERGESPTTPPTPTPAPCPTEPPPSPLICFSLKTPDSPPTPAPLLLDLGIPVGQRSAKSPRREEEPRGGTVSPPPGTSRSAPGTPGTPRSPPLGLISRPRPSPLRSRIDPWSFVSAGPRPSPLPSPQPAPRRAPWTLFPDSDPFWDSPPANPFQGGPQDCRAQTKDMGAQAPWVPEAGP
T1 sequence (Q66HA1 whole entry): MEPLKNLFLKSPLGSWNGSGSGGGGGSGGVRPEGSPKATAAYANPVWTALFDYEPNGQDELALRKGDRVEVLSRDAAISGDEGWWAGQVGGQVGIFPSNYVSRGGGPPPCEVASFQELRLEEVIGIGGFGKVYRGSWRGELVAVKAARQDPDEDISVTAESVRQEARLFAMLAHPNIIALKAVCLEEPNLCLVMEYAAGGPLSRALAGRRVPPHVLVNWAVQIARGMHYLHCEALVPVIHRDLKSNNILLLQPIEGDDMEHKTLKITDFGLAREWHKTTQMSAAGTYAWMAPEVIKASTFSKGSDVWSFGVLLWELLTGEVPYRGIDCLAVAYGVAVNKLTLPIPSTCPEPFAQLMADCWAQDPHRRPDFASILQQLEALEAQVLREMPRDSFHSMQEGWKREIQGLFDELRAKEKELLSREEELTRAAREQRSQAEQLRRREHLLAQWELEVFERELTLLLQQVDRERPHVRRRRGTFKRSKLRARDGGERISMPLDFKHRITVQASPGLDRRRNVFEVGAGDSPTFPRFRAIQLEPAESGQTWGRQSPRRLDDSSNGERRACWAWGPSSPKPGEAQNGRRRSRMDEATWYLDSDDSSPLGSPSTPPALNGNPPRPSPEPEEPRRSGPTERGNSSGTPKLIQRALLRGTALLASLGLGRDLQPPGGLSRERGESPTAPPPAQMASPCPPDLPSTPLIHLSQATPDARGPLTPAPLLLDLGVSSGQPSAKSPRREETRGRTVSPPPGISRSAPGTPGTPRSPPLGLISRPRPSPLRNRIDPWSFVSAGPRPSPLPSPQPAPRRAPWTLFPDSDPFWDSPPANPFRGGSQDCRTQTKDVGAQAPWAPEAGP

| SMILES | IC50 (MLK3 [5]) [µM] | other results |
| --- | --- | --- |
| CN1CCN(Cc2ccc(-c3cnc4[nH]cc(-c5ccc6[nH]ccc6c5)c4c3)cc2)CC1 [Example 32, 3-(1H-indol-5-yl)-5-(4-((4-methylpiperazin-1-yl)methyl)phenyl)-1H-pyrrolo[2,3-b]pyridine] | – | AUC Brain [1]: + (+ indicates ≧500) |
| CCSCc1ccc2c(c1)c1c3c(c4c5cc(CSCC)ccc5n5c4c1n2[C@H]1C[C@](O)(C(=O)OC)[C@]5(C)O1)CNC3=O [CEP1347] | – | Tat and gp120 induced autophosphorylation of MLK3 (MLK3 [2]): abolished; protection of neurons from lethal effects of HIV-1 gp120 [3]: can protect; neuroprotection in in vivo model of HIV-1 infection [4]: neuroprotective |
| COc1cc(-c2cnc3[nH]cc(-c4ccc(N)nc4)c3c2)cc(OC)c1OC [Example 18, 5-(5-(3,4,5-trimethoxyphenyl)-1H-pyrrolo[2,3-b]pyridin-3-yl)pyridin-2-amine] | < 0.1 | AUC Brain [1]: − (− indicates <500) |
| Nc1ncc(-c2cnc3[nH]cc(-c4ccc5[nH]ccc5c4)c3c2)cn1 [Example 9, 5-(3-(1H-indol-5-yl)-1H-pyrrolo[2,3-b]pyridin-5-yl)pyrimidin-2-amine] | < 0.1 | AUC Brain [1]: + (+ indicates ≧500) |
| COc1cc(-c2cnc3[nH]cc(-c4ccc5[nH]ccc5c4)c3c2)cc(OC)c1OC [Example 1, 3-(1H-indol-5-yl)-5-(3,4,5-trimethoxyphenyl)-1H-pyrrolo[2,3-b]pyridine] | – | AUC Brain [1]: + (+ indicates ≧500) |
| COc1cc(-c2cnc3[nH]cc(-c4cnc(N)nc4)c3c2)cc(OC)c1OC [Example 17, 5-(5-(3,4,5-trimethoxyphenyl)-1H-pyrrolo[2,3-b]pyridin-3-yl)pyrimidin-2-amine] | < 0.1 | AUC Brain [1]: − (− indicates <500) |
| O=c1[nH]c2ncc(-c3cc(F)cc(F)c3)nc2n1-c1ccc2[nH]ccc2c1 [Example 61, 6-(3,5-difluorophenyl)-1-(1H-indol-5-yl)-1H-imidazo[4,5-b]pyrazin-2(3H)-one] | > 1 | – |
| COc1cc(-c2cnc3c(c2)C(Cc2ccccc2)C(=O)N3)cc(OC)c1OC (stereo not shown) [Example 137, 3-benzyl-5-(3,4,5-trimethoxy-phenyl)-1,3-dihydro-pyrrolo[2,3-b]pyridin-2-one] | > 1 | – |
| COc1ccc(-n2c(=O)[nH]c3ncc(-c4ccc(O)cc4)nc32)cc1 [Example 70, 6-(4-hydroxyphenyl)-1-(4-methoxyphenyl)-1H-imidazo[4,5-b]pyrazin-2(3H)-one] | > 1 | – |
| NC(=O)c1ccc(-c2c[nH]c3ncc(-c4ccc(C(=O)N5CCNCC5)cc4)cc23)cc1 [Example 149, 4-{5-[4-(piperazine-1-carbonyl)-phenyl]-1H-pyrrolo[2,3-b]pyridin-3-yl}-benzamide, hydrochloride salt] | < 0.1 | – |
| O=c1[nH]c2ncc(-c3ccc4cc[nH]c4c3)nc2n1-c1ccc2[nH]ccc2c1 [Example 56, 1-(1H-indol-5-yl)-6-(1H-indol-6-yl)-1H-imidazo[4,5-b]pyrazin-2(3H)-one] | > 1 | – |
| CN1CCN(Cc2cccc(-c3cnc4[nH]cc(-c5ccc6[nH]ccc6c5)c4c3)c2)CC1=O [Example 143, 4-{3-[3-(1H-indol-5-yl)-1H-pyrrolo[2,3-b]pyridin-5-yl]-benzyl}-1-methyl-piperazin-2-one] | < 0.1 | – |
| CC(C)(C)OC(=O)N1CCN(C(=O)c2ccc(-c3cnc4[nH]cc(-c5ccc(C(N)=O)cc5)c4c3)cc2)CC1 [Example 148, 4-{4-[3-(4-carbamoyl-phenyl)-1H-pyrrolo[2,3-b]pyridin-5-yl]-benzoyl}-piperazine-1-carboxylic acid tert-butyl ester] | < 0.1 | – |
| COc1cc(-c2cnc3c(c2)C(=Cc2ccc(C(N)=O)cc2)C(=O)N3)cc(OC)c1OC [Example 131, 4-[2-oxo-5-(3,4,5-trimethoxy-phenyl)-1,2-dihydro-pyrrolo[2,3-b]pyridin-3-ylidenemethyl]-benzamide] | 0.1 to 1 | – |
| COC(=O)N1CCN(Cc2ccc(-c3cnc4[nH]cc(-c5ccc6[nH]ccc6c5)c4c3)cc2)CC1 [Example 184] | < 0.1 | – |
| CCC(=O)N1CCN(Cc2ccc(-c3cnc4[nH]cc(-c5ccc6[nH]ccc6c5)c4c3)cc2)CC1 [Example 187] | < 0.1 | – |
| CN1CCN(Cc2ccc(-c3c[nH]c4ncc(-c5ccc(C(N)=O)cc5)cc34)cc2)CC1 [Example 162, 4-{3-[4-(4-methyl-piperazin-1-ylmethyl)-phenyl]-1H-pyrrolo[2,3-b]pyridin-5-yl}-benzamide] | < 0.1 | – |
| Nc1ccc(-c2cnc3[nH]cc(-c4ccc5[nH]ccc5c4)c3c2)cn1 [Example 4, 5-(3-(1H-indol-5-yl)-1H-pyrrolo[2,3-b]pyridin-5-yl)pyridin-2-amine] | < 0.1 | AUC Brain [1]: − (− indicates <500) |

Further lines, with some results ahead:

| IC50 (MLK3 [5]) [µM] | SMILES | other results |
| --- | --- | --- |
| 0.1 to 1 | COc1cc(-c2cc3c(-c4ccc(C(N)=O)cc4)c[nH]c3[n+]([O-])c2)cc(OC)c1OC [Example 154, 4-[7-oxy-5-(3,4,5-trimethoxy-phenyl)-1H-pyrrolo[2,3-b]pyridin-3-yl]benzamide] | – |
| > 1 | COc1ccc(-c2cnc3[nH]c(=O)n(C4CCCC4)c3n2)cc1OC [Example 75, 1-cyclopentyl-6-(3,4-dimethoxyphenyl)-1H-imidazo[4,5-b]pyrazin-2(3H)-one] | – |
| < 0.1 | O=c1[nH]c2ncc(-c3cc(F)c(O)c(F)c3)nc2n1-c1ccc2[nH]ccc2c1 [Example 59, 6-(3,5-difluoro-4-hydroxyphenyl)-1-(1H-indol-5-yl)-1H-imidazo[4,5-b]pyrazin-2(3H)-one] | – |
| < 0.1 | CS(=O)(=O)N1CCN(Cc2ccc(-c3cnc4[nH]cc(-c5ccc6[nH]ccc6c5)c4c3)cc2)CC1 [Example 190] | – |
| < 0.1 | CC(=O)N1CCN(Cc2ccc(-c3cnc4[nH]cc(-c5ccc(C(N)=O)cc5)c4c3)cc2)CC1 [Example 157, 4-{5-[4-(4-acetyl-piperazin-1-ylmethyl)-phenyl]-1H-pyrrolo[2,3-b]pyridin-3-yl}-benzamide] | – |
| < 0.1 | CCOC(=O)N1CCN(Cc2ccc(-c3cnc4[nH]cc(-c5ccc6[nH]ccc6c5)c4c3)cc2)CC1 [Example 183] | – |
| < 0.1 | COc1cc(-c2cnc3[nH]cc(-c4ccc(N)cc4)c3c2)cc(OC)c1OC [Example 15, 4-(5-(3,4,5-trimethoxyphenyl)-1H-pyrrolo[2,3-b]pyridin-3-yl)aniline] | – |
| > 1 | COc1ccc(-c2cnc3[nH]c(=O)n(-c4ccc5[nH]ncc5c4)c3n2)cc1OC [Example 87, 6-(3,4-dimethoxyphenyl)-1-(1H-indazol-5-yl)-1H-imidazo[4,5-b]pyrazin-2(3H)-one] | – |
| > 1 | COc1cc(-c2cnc3ncn(-c4ccc5[nH]ccc5c4)c3n2)cc(OC)c1OC [Example 126, 1-(1H-indol-5-yl)-6-(3,4,5-trimethoxyphenyl)-1H-imidazo[4,5-b]pyrazine] | – |
| < 0.1 | COc1cc(-c2cnc3[nH]c(=O)n(C4Cc5ccccc5C4)c3n2)cc(OC)c1OC [Example 110, 1-(2,3-dihydro-1H-inden-2-yl)-6-(3,4,5-trimethoxyphenyl)-1H-imidazo[4,5-b]pyrazin-2(3H)-one] | – |

From patent US8846909B2, “Bicyclic heteroaryl kinase inhibitors and methods of use” (University of Rochester, priority 2010, dated 2014)
